In one series the test system is PANC-1. Briefly: Antiproliferative activity against human PANC-1 cells assessed as inhibition of cell viability by MTT assay. The series is classed as functional, cell-based.
The subject of another series is MIA PaCa-2. As to the kind of experiment: Antiproliferative activity against human MIA PaCa-2 cells assessed as inhibition of cell viability by MTT assay. The series is classed as functional, cell-based. On the technique in general: Tetrazolium assays rely on reduction of a dye to a coloured formazan, in cell work by metabolically active cells.
For a further series, the system named is BXPC-3. Briefly: Antiproliferative activity against human BXPC-3 cells assessed as inhibition of cell viability by MTT assay. The series is classed as functional, cell-based.
For another series, the system named is ASPC1. Briefly: Antiproliferative activity against human ASPC1 cells assessed as inhibition of cell viability by MTT assay. The series is classed as functional, cell-based.
The target in series [1] is T1, Protein cereblon/Glycogen synthase kinase-3 beta (Homo sapiens, UniProt P49841+Q96SW2). Briefly: PROTAC activity at CRBN/GSK3beta in human PANC-1 cells assessed as induction of GSK3beta degradation at 0.5 to 2.8 uM incubated for 10 hrs in presence of MG132 by Western blot analysis. Particulars: dose 0.5-2.8 µM. The series is classed as cell-based. In general terms: Immunoblotting shows a protein as a band on a membrane.
Target sequence in this assay (P49841 whole entry, looked up): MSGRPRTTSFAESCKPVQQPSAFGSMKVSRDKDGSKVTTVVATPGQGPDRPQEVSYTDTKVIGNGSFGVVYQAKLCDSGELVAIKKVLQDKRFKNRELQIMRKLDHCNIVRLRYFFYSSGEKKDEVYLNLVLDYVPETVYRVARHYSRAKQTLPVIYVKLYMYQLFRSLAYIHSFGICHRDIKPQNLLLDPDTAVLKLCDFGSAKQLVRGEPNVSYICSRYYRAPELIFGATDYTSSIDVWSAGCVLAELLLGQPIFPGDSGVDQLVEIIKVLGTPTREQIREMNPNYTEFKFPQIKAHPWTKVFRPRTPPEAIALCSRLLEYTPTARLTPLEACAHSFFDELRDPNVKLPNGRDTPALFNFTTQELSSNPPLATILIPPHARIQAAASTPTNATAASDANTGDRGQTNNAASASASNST
Target sequence in this assay (Q96SW2 whole entry, looked up): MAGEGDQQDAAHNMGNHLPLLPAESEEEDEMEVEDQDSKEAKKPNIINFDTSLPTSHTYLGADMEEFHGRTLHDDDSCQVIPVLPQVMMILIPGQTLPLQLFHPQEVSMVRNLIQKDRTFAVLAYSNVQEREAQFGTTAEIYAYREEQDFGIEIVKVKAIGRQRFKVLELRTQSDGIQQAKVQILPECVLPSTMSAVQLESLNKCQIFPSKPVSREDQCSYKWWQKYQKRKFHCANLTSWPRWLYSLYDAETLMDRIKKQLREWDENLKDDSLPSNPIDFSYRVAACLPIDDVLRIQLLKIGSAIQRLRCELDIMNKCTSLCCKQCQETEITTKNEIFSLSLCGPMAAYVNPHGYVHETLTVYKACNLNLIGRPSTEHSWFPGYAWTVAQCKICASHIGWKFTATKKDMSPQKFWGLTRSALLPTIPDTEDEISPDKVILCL

Series [2] has as its target T2, Protein cereblon/Cyclin-dependent kinase 5 (Homo sapiens, UniProt Q00535+Q96SW2). As to the kind of experiment: PROTAC activity at CRBN/CDK5 in human PANC-1 cells assessed as induction of CDK5 degradation at 0.5 to 2.8 uM incubated for 10 hrs in presence of MG132 by Western blot analysis. The series is classed as cell-based. Conditions: dose 0.5-2.8 µM.
Target sequence in this assay (Q00535 whole entry, looked up): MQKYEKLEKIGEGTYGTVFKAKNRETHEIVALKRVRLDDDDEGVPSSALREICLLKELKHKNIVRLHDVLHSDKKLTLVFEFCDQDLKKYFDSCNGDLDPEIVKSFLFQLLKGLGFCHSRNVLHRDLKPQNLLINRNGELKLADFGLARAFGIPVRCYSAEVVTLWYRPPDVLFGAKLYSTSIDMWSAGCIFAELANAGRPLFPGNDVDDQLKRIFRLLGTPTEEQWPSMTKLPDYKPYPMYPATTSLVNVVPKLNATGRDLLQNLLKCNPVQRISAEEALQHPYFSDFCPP
Target sequence in this assay (Q96SW2 whole entry, looked up): as the sequence (Q96SW2 whole entry, looked up) above
Series [3] has as its target T1, Protein cereblon/Glycogen synthase kinase-3 beta. As to the kind of experiment: PROTAC activity at CRBN/GSK3beta in human PANC-1 cells assessed as induction of GSK3beta degradation at 1 to 2.8 uM incubated for 10 hrs by Western blot analysis. The series is classed as cell-based. Particulars: dose 1-2.8 µM.
Target sequence in this assay (P49841 whole entry, looked up): as the sequence (P49841 whole entry, looked up) above
Target sequence in this assay (Q96SW2 whole entry, looked up): as the sequence (Q96SW2 whole entry, looked up) above
The target in series [4] is T2, Protein cereblon/Cyclin-dependent kinase 5. Briefly: PROTAC activity at CRBN/CDK5 in human PANC-1 cells assessed as induction of CDK5 degradation at 1 to 2.8 uM incubated for 10 hrs by Western blot analysis. The series is classed as cell-based. Particulars: dose 1-2.8 µM.
Target sequence in this assay (Q00535 whole entry, looked up): as the sequence (Q00535 whole entry, looked up) above
Target sequence in this assay (Q96SW2 whole entry, looked up): as the sequence (Q96SW2 whole entry, looked up) above
Series [5] concerns the target T1, Protein cereblon/Glycogen synthase kinase-3 beta. Briefly: PROTAC activity at CRBN/GSK3beta in human PANC-1 cells assessed as induction of GSK3beta degradation by target engagement binding based cell-ELISA. On the technique in general: ELISA stands for enzyme-linked immunosorbent assay.
Target sequence in this assay (P49841 whole entry): as the sequence (P49841 whole entry, looked up) above
Target sequence in this assay (Q96SW2 whole entry): as the sequence (Q96SW2 whole entry, looked up) above
The target is the same in series [6]. Briefly: PROTAC activity at CRBN/GSK3beta in human PANC-1 cells assessed as induction of GSK3beta degradation by measuring maximal efficacy by target engagement binding based cell-ELISA relative to control.
Target sequence in this assay (P49841 whole entry, looked up): as the sequence (P49841 whole entry, looked up) above
Target sequence in this assay (Q96SW2 whole entry, looked up): as the sequence (Q96SW2 whole entry, looked up) above
In series [7] the target is T2, Protein cereblon/Cyclin-dependent kinase 5. As to the kind of experiment: PROTAC activity at CRBN/CDK5 in human PANC-1 cells assessed as induction of CDK5 degradation by target engagement binding based cell-ELISA.
Target sequence in this assay (Q00535 whole entry): as the sequence (Q00535 whole entry, looked up) above
Target sequence in this assay (Q96SW2 whole entry): as the sequence (Q96SW2 whole entry, looked up) above
The target is the same in series [8]. As to the kind of experiment: PROTAC activity at CRBN/CDK5 in human PANC-1 cells assessed as induction of CDK5 degradation by measuring maximal efficacy by target engagement binding based cell-ELISA relative to control.
Target sequence in this assay (Q00535 whole entry, looked up): as the sequence (Q00535 whole entry, looked up) above
Target sequence in this assay (Q96SW2 whole entry, looked up): as the sequence (Q96SW2 whole entry, looked up) above
Series [9] can be described thus: Permeability of compound in PBS at pH 7.4 at 500 uM incubated for 4 hrs by UV spectrophotometry based PAMPA. Conditions: read-out: permeability. The series is classed as ADME.
In a further series the target is T3, Cytochrome P450 2B6 (Homo sapiens, UniProt P20813).
T3 sequence (P20813 whole entry): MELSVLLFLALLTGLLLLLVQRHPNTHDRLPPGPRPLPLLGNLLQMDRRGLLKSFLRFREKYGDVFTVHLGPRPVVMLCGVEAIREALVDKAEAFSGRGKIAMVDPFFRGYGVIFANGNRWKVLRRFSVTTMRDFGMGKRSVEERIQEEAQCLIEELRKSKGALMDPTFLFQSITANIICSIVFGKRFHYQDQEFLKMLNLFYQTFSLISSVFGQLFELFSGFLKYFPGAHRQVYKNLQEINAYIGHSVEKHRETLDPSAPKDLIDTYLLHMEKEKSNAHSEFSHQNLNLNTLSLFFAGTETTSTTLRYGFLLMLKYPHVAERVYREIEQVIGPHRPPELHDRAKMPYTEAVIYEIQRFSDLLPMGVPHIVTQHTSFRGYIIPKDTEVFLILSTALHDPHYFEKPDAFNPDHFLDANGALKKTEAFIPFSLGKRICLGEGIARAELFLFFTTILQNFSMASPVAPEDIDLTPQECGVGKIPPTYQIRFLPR
Briefly: Inhibition of CYP2B6 (unknown origin) using bupropion as substrate […]. The series is classed as ADME.

The target in series [10] is Protein cereblon/Cyclin-dependent kinase 2 (Homo sapiens, UniProt P24941+Q96SW2). Briefly: PROTAC activity at CRBN/CDK2 (unknown origin) assessed as induction of CDK2 degradation. The series is classed as protein assay.
Series [11] can be described thus: Metabolic stability in pooled human liver microsomes assessed as half-life at 100 uM measured upto 120 mins by LC-MS/MS analysis. The series is classed as ADME, Microsome.
Series [12] is described as follows: Cytotoxicity against human HepG2 cells. The series is classed as toxicity, cell-based.
The nature of series [13]: Cytotoxicity against human A549 cells. The series is classed as toxicity, cell-based.

The record followed here is ChEMBL document CHEMBL6114965, “Novel dual-targeting PROTAC degraders of GSK-3β and CDK5: A promising approach for pancreatic cancer treatment” (Bioorg Med Chem, 2025).

Structures are written as SMILES. Active and inactive are the calls of the source. No cut-off for these calls is given here.

As usually defined, the IC50 is the concentration at which inhibition is half-maximal. One may read the DC50 as the midpoint of the concentration-degradation curve. As a reminder, the Emax is the greatest response seen or fitted, relative to the assay's reference. As for `O=C1CCC(N2C(=O)c3ccc(N4CCN(CCOCCC(=O)N5CCC(NC(=O)c6c[nH]nc6NC(=O)c6c(Cl)cccc6Cl)CC5)CC4)cc3C2=O)C(=O)N1` (centres undefined), the IC50 with PANC-1 turned out to be 1950 nM; in the series with MIA PaCa-2, 2190 nM; in the series with BXPC-3 it was 2210 nM; in the series on ASPC1 it was 2250 nM. For the same compound, the outcome in [1] and in series [2] was inactive. Further, the outcome in series [3] and in series [4] was Active. Moreover, the values for the DC50 in series [5] and in [7] were 98 nM and 32 nM, respectively. Moreover, the Emax in [6] is 89%; in [8] it was 90%. Besides, the Papp at 4 h, 500 µM in series [9] is 38.6 ×10⁻⁶ cm/s.
For `CN(CCC(=O)N1CCC(NC(=O)c2c[nH]nc2NC(=O)c2c(Cl)cccc2Cl)CC1)C(=O)CNc1cccc2c1C(=O)N(C1CCC(=O)NC1=O)C2=O` (centres undefined), the IC50 in the series with PANC-1 is 2340 nM; in the series with MIA PaCa-2, 3120 nM; in the series with BXPC-3 it was 2890 nM; with ASPC1, 2560 nM. The outcome in [1] and in series [2] was inactive. Besides, the DC50 came to 152 nM in [5] and 45 nM in [7]. The Emax amounted to 78% in series [6] and 90% in series [8]. Further, in series [9], the Papp at 4 h, 500 µM came to 31.3 ×10⁻⁶ cm/s.
Regarding `CN[C@H]1CC[C@@H](c2ccc(Cl)c(Cl)c2)c2ccccc21` [SERTRALINE], the IC50 on Cytochrome P450 2B6 turned out to be 12500 nM.
In the case of `OC[C@@H](O)[C@@H](O)[C@H](O)[C@H](O)CO` [MANNITOL], the Papp at 4 h, 500 µM in [9] was 4.08 ×10⁻⁶ cm/s.
Take `O=C1Cc2c([nH]c3ccc(Br)cc23)-c2ccccc2N1` [KENPAULLONE]: the IC50 in the series with PANC-1 was determined as 8600 nM; in the series with MIA PaCa-2 it was 7200 nM; in the series on BXPC-3 it was 9100 nM; in the series on ASPC1 it was 6500 nM.
Turning to `Cc1cscc1C(=O)n1nc(Nc2ccc(S(=O)(=O)NCCOCc3cn(CCOCCOCCNc4cccc5c4C(=O)N(C4CCC(=O)NC4=O)C5=O)nn3)cc2)nc1N` (centres undefined), in series [10], the DC50 was determined as 61 nM.
Take `Cc1cc(=O)n(-c2ccccc2)n1C` [ANTIPYRINE]: in [9], the Papp at 4 h, 500 µM came to 15.2 ×10⁻⁶ cm/s.
Turning to `O=C1CCC(N2C(=O)c3ccc(N4CCN(CCOCCC(=O)N5CCN(CCCn6cc(C7=C(c8c[nH]c9ccccc89)C(=O)NC7=O)c7ccccc76)CC5)CC4)cc3C2=O)C(=O)N1` (centres undefined), the IC50 with PANC-1 is 2500 nM; in the series with MIA PaCa-2, 2430 nM; in the series with BXPC-3, 2870 nM; in the series on ASPC1 it was 3870 nM. In addition, the outcome in [1] and in series [2] was inactive. For the same compound, the result in [3] and in series [4] was Active. Further, the DC50 stood at 56 nM in series [5] and 52 nM in series [7]. Also, the Emax in series [6] was 88%; in series [8], 89%. Further, the Papp at 4 h, 500 µM in series [9] turned out to be 69.2 ×10⁻⁶ cm/s.
As for `O=C1CCC(N2C(=O)c3cccc(NCCOCCOCCOCCOCCOCn4cc(CN5CCN(CCCn6cc(C7=C(c8c[nH]c9ccccc89)C(=O)NC7=O)c7ccccc76)CC5)nn4)c3C2=O)C(=O)N1` (centres undefined), the IC50 in the series on PANC-1 is 5720 nM; in the series with MIA PaCa-2, 4670 nM; in the series with BXPC-3, 4870 nM; in the series with ASPC1, 3350 nM. For the same compound, the result in series [1] and in [2] was inactive. Further, the figures for the DC50 in [5] and in series [7] were 220 nM and 330 nM, respectively. The values for the Emax in series [6] and in [8] were 75% and 78%, respectively.
Regarding `O=C1CCC(N2C(=O)c3cccc(NCC(=O)N4CCC(C(=O)N5CCN(CCCn6cc(C7=C(c8c[nH]c9ccccc89)C(=O)NC7=O)c7ccccc76)CC5)CC4)c3C2=O)C(=O)N1` (centres undefined), the concentration for half-maximal inhibition (IC50) with PANC-1 was 2810 nM; in the series on MIA PaCa-2, 3010 nM; in the series on BXPC-3, 3540 nM; in the series with ASPC1, 3580 nM. For the same compound, the result in series [1] and in series [2] was inactive. In addition, the DC50 in series [5] came to 125 nM; in series [7], 321 nM. Also, the Emax in series [6] was 81%; in series [8] it was 78%.
As to `O=C1CCC(N2C(=O)c3cccc(NCCOCCOCCOCC(=O)N4CCN(CCCn5cc(C6=C(c7c[nH]c8ccccc78)C(=O)NC6=O)c6ccccc65)CC4)c3C2=O)C(=O)N1` (centres undefined), the IC50 in the series on PANC-1 was 5150 nM; with MIA PaCa-2, 6610 nM; with BXPC-3, 5980 nM; in the series with ASPC1 it was 5560 nM. Also, the result in [1] and in [2] was inactive. The DC50 in series [5] came to 96 nM; in series [7], 210 nM. The results for the Emax in series [6] and in series [8] were 87% and 81%, respectively.
By half-life is commonly meant the time in which the quantity being followed falls by half. Usually CC50 stands for the concentration that lowers cell viability or growth by half. Higher therefore signals lower toxicity to the cells. Consider `CC(=O)c1c(C)c2cnc(Nc3ccc(N4CCNCC4)cn3)nc2n(C2CCCC2)c1=O` [PALBOCICLIB], for which the half-life at 100 µM in series [11] is 57 min. Further, the CC50 is 8120 nM in series [12] and 7950 nM in series [13].
`O=C1CCC(N2C(=O)c3cccc(NCCOCCOCCOCC(=O)N4CCC(NC(=O)c5c[nH]nc5NC(=O)c5c(Cl)cccc5Cl)CC4)c3C2=O)C(=O)N1` (centres undefined): the IC50 turned out to be 2750 nM in the series with PANC-1, 3810 nM in the series on MIA PaCa-2, 3140 nM with BXPC-3 and 3570 nM in the series on ASPC1. Besides, the result in series [1] and in series [2] was inactive. Further, the DC50 in series [5] was 90 nM; in series [7], 36 nM. The Emax in series [6] worked out at 89%; in series [8], 92%. Also, the Papp at 4 h, 500 µM in series [9] worked out at 61.2 ×10⁻⁶ cm/s.
